The values below come from PubChem BioAssay AID330 (DTP/NCI, 2004).

The experiment deals with P388 leukemia ip, CD2F1 mice, survival T/C. Briefly: NCI In Vivo Anticancer Drug Screen. Data for tumor model P388 Leukemia (intraperitoneal) in CD2F1 (CDF1) mice. The settings on record: endpoint: median survival time, higher = longer survival. Put shortly:
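Mice carrying the transplanted tumor received test compound or vehicle. Survival was recorded in each group, and the value is the treated-group measurement divided by that of the vehicle-treated control group.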

[1] abbreviates: dose: 100.0 mg/kg/injection, schedule: Q04DX002 (ip), vehicle: saline with Tween-80.

“And” between values parts separate entries of the source, which are not always exact repeats. Identical values can stand only once. Toxic doses and inconclusive results are not listed.

For `CSc1nc(C(N)=O)cc(=O)[nH]1`, the T/C runs as follows: (dose: 3.12 mg/kg/injection, schedule: Q01DX009 (ip), vehicle: Klucel (hydroxypropylcellulose) (HPC)) 104 % of control; (dose: 6.25 mg/kg/injection, schedule: Q01DX009 (ip), vehicle: Klucel (hydroxypropylcellulose) (HPC)) 104 % of control; (dose: 12.5 mg/kg/injection, schedule: Q01DX009 (ip), vehicle: Klucel (hydroxypropylcellulose) (HPC)) 104 % of control and 106 % of control; (dose: 25.0 mg/kg/injection, schedule: Q01DX009 (ip), vehicle: Klucel (hydroxypropylcellulose) (HPC)) 105 % of control; (dose: 50.0 mg/kg/injection, schedule: Q01DX009 (ip), vehicle: Klucel (hydroxypropylcellulose) (HPC)) 92 % of control.
Regarding `C/C(=N\NC(N)=Nc1ccc(C)cc1)c1ccc2c(c1)Cc1ccccc1-2`, the T/C is 91 % of control (dose: 25.0 mg/kg/injection, schedule: Q04DX002 (ip), vehicle: saline with Tween-80); 99 % of control (dose: 50.0 mg/kg/injection, schedule: Q04DX002 (ip), vehicle: saline with Tween-80); 97 % of control under setting [1].
As for `CS(=O)(=O)Nc1ccc(Nc2c3ccccc3nc3cc(Cl)ccc23)cc1`, the T/C is 181 % of control (dose: 100.0 mg/kg/injection, schedule: Q04DX003 (ip), vehicle: saline) and 240 % of control (dose: 200.0 mg/kg/injection, schedule: Q04DX003 (ip), vehicle: saline).
On to `COc1cc(OC)c(NC(=O)O/N=C(\c2ccccc2)C(O)c2ccccc2)cc1Cl` (stereo unspecified), for which the T/C was 91 % of control (dose: 50.0 mg/kg/injection, schedule: Q01DX009 (ip), vehicle: saline with Tween-80); 91 % of control (dose: 100.0 mg/kg/injection, schedule: Q01DX009 (ip), vehicle: saline with Tween-80); 90 % of control (dose: 200.0 mg/kg/injection, schedule: Q01DX009 (ip), vehicle: saline with Tween-80).
Consider `COC(=O)C1(c2ccccc2)N=C1N(C)C` (stereo unspecified), for which the T/C was 94 % of control under setting [1]; 94 % of control (dose: 200.0 mg/kg/injection, schedule: Q04DX002 (ip), vehicle: saline with Tween-80); 102 % of control (dose: 400.0 mg/kg/injection, schedule: Q04DX002 (ip), vehicle: saline with Tween-80).
Consider `CC(=O)OC1C2(CC3N4C(=O)C5(CO)SSC4(CC31O)C(=O)N5C)OC(C)C(C)(C)C2=O` (stereo unspecified), for which the T/C by setting is: (dose: 0.08 mg/kg/injection, schedule: Q01DX009 (ip), vehicle: saline) 101 % of control; (dose: 0.15 mg/kg/injection, schedule: Q01DX009 (ip), vehicle: saline) 108 % of control; (dose: 0.3 mg/kg/injection, schedule: Q01DX009 (ip), vehicle: saline) 111 % of control; (dose: 0.31 mg/kg/injection, schedule: Q01DX009 (ip), vehicle: saline) 107 % of control; (dose: 0.6 mg/kg/injection, schedule: Q01DX009 (ip), vehicle: saline) 111 % of control; (dose: 0.63 mg/kg/injection, schedule: Q01DX009 (ip), vehicle: saline with Tween-80) 97 % of control. Further, the T/C was 107 % of control (dose: 0.63 mg/kg/injection, schedule: Q01DX009 (ip), vehicle: saline); 104 % of control (dose: 0.78 mg/kg/injection, schedule: Q01DX009 (oral), vehicle: saline); 99 % of control (dose: 1.2 mg/kg/injection, schedule: Q01DX009 (ip), vehicle: saline); 103 % of control and 111 % of control (dose: 1.25 mg/kg/injection, schedule: Q01DX009 (ip), vehicle: saline); 105 % of control (dose: 1.56 mg/kg/injection, schedule: Q01DX009 (oral), vehicle: saline); 100 % of control and 101 % of control (dose: 3.12 mg/kg/injection, schedule: Q01DX009 (oral), vehicle: saline). Further, the T/C is 95 % of control (dose: 6.25 mg/kg/injection, schedule: Q01DX009 (oral), vehicle: saline) and 89 % of control (dose: 12.5 mg/kg/injection, schedule: Q01DX009 (oral), vehicle: saline).
As to `O=C(N=Nc1ccccc1)Nc1ccc(Cl)cc1`, the T/C is, setting by setting: (dose: 50.0 mg/kg/injection, schedule: Q01DX005 (ip), vehicle: saline with Tween-80) 100 % of control; (dose: 100.0 mg/kg/injection, schedule: Q01DX005 (ip), vehicle: saline with Tween-80) 100 % of control; (dose: 200.0 mg/kg/injection, schedule: Q01DX005 (ip), vehicle: saline with Tween-80) 90 % of control.
Turning to `O=c1[nH]c2cc(Cl)ccc2nc1/C=C(\O)c1ccc([N+](=O)[O-])cc1`, the T/C by setting is: (dose: 60.0 mg/kg/injection, schedule: Q01DX005 (ip), vehicle: Klucel (hydroxypropylcellulose) (HPC)) 101 % of control; (dose: 120.0 mg/kg/injection, schedule: Q01DX005 (ip), vehicle: Klucel (hydroxypropylcellulose) (HPC)) 96 % of control; (dose: 240.0 mg/kg/injection, schedule: Q01DX005 (ip), vehicle: Klucel (hydroxypropylcellulose) (HPC)) 89 % of control.
Take `CCN(CC)CCCC(C)NS(=O)(=O)c1cccc2c(N(C)C)cccc12` (stereo unspecified): the T/C is 96 % of control (dose: 6.25 mg/kg/injection, schedule: Q01DX009 (ip), vehicle: water); 97 % of control (dose: 12.5 mg/kg/injection, schedule: Q01DX009 (ip), vehicle: water); 93 % of control (dose: 25.0 mg/kg/injection, schedule: Q01DX009 (ip), vehicle: water); 96 % of control (dose: 50.0 mg/kg/injection, schedule: Q01DX009 (ip), vehicle: water); 99 % of control (dose: 100.0 mg/kg/injection, schedule: Q01DX009 (ip), vehicle: water).
Regarding `Cc1cc(C)n(C2=NCCN2)n1`, the T/C is, setting by setting: (dose: 60.0 mg/kg/injection, schedule: Q01DX005 (ip), vehicle: saline) 99 % of control; (dose: 120.0 mg/kg/injection, schedule: Q01DX005 (ip), vehicle: saline) 96 % of control.
As to `CC(=O)Oc1ccc2c3c1O[C@H]1[C@@H](OC(C)=O)C=C[C@H]4[C@@H](C2)N(C)CC[C@@]341`, the T/C is, setting by setting: (dose: 0.39 mg/kg/injection, schedule: Q01DX009 (ip), vehicle: saline) 100 % of control; (dose: 0.78 mg/kg/injection, schedule: Q01DX009 (ip), vehicle: saline) 101 % of control; (dose: 1.56 mg/kg/injection, schedule: Q01DX009 (ip), vehicle: saline) 94 % of control; (dose: 3.12 mg/kg/injection, schedule: Q01DX009 (ip), vehicle: saline) 95 % of control; (dose: 6.25 mg/kg/injection, schedule: Q01DX009 (ip), vehicle: saline) 100 % of control; (dose: 12.5 mg/kg/injection, schedule: Q01DX009 (ip), vehicle: saline) 110 % of control. Moreover, the T/C is, setting by setting: (dose: 25.0 mg/kg/injection, schedule: Q01DX009 (ip), vehicle: saline) 100 % of control; (dose: 50.0 mg/kg/injection, schedule: Q01DX009 (ip), vehicle: saline) 108 % of control; (dose: 100.0 mg/kg/injection, schedule: Q01DX009 (ip), vehicle: saline) 117 % of control; (dose: 200.0 mg/kg/injection, schedule: Q01DX009 (ip), vehicle: saline) 110 % of control.
Take `O=C(NP1(=O)NCc2ccccc2CN1)OC1CCCC1`: the T/C was 99 % of control and 92 % of control (dose: 3.12 mg/kg/injection, schedule: Q01DX005 (ip), vehicle: Klucel (hydroxypropylcellulose) (HPC)); 101 % of control and 91 % of control (dose: 6.25 mg/kg/injection, schedule: Q01DX005 (ip), vehicle: Klucel (hydroxypropylcellulose) (HPC)); 99 % of control and 104 % of control (dose: 12.5 mg/kg/injection, schedule: Q01DX005 (ip), vehicle: Klucel (hydroxypropylcellulose) (HPC)); 92 % of control and 93 % of control and 98 % of control (dose: 25.0 mg/kg/injection, schedule: Q01DX005 (ip), vehicle: Klucel (hydroxypropylcellulose) (HPC)); 91 % of control (dose: 50.0 mg/kg/injection, schedule: Q01DX005 (ip), vehicle: Klucel (hydroxypropylcellulose) (HPC)); 88 % of control (dose: 200.0 mg/kg/injection, schedule: Q01DX005 (ip), vehicle: Klucel (hydroxypropylcellulose) (HPC)).
As to `CCCC/C=C(\C)C(O)C(C)/C=C(\C)CCC(O)C(C)C(O)C(C)C(O)C(C)C1OC(C(C)C(=O)O)CCC1C` (stereo unspecified), the T/C was 103 % of control and 105 % of control (dose: 1.5 mg/kg/injection, schedule: Q01DX005 (ip), vehicle: Klucel (hydroxypropylcellulose) (HPC)); 99 % of control and 108 % of control (dose: 3.0 mg/kg/injection, schedule: Q01DX005 (ip), vehicle: Klucel (hydroxypropylcellulose) (HPC)); 102 % of control and 109 % of control (dose: 6.0 mg/kg/injection, schedule: Q01DX005 (ip), vehicle: Klucel (hydroxypropylcellulose) (HPC)); 99 % of control and 100 % of control (dose: 12.0 mg/kg/injection, schedule: Q01DX005 (ip), vehicle: Klucel (hydroxypropylcellulose) (HPC)).
Turning to `COC(=O)C1=C(C(=O)OC)N2c3ccccc3-n3c(-c4ccccc4)cc(OC)c3C2(C)C(C(=O)OC)=C1C(=O)OC` (stereo unspecified), the T/C is 99 % of control (dose: 100.0 mg/kg/injection, schedule: Q01DX001 (ip), vehicle: saline with Tween-80); 99 % of control (dose: 200.0 mg/kg/injection, schedule: Q01DX001 (ip), vehicle: saline with Tween-80); 92 % of control (dose: 400.0 mg/kg/injection, schedule: Q01DX001 (ip), vehicle: saline with Tween-80).
